# From publication PMC10287566, “Signaling-specific inhibition of the CB1 receptor for cannabis use disorder: phase 1 and phase 2a randomized trials” (Nature Medicine, 2023)
# Read-outs that look alike come from different tables or passages of the source.
# Columns and labels:
# [1] = Plasma and brain pharmacokinetics/toxicokinetics in rats; format: in vivo; conditions: for AUC(0-t) / Cmax / half-life / Tmax: rat, plasma; for AUC(0-t) / Cmax / half-life: po
# Description: Blood samples were obtained from catheterized animals housed in Culex cages with an automated blood sampler—a robotic system designed to facilitate the sampling of whole blood from awake and freely moving rodents. At the last withdrawal timepoint (48 h after dosing), blood aliquots were manually collected from the femoral catheter. This experiment was performed by the CRO Oncodesign.
# Blood was withdrawn by cardiac puncture, and the brains were harvested.
# In both experiments, blood samples were centrifuged ~7 min at 1,600g (4 °C), and the plasma was collected. The brain was weighed and frozen on dry ice. Plasma and brain were stored below −70 °C until analysis.
# For all studies in rats and the 91-d toxicity study in dogs, the timepoints on days 1, 28 and 91 were: before dose and 1, 3, 5, 8 and 24 h after dose. For the 28-d toxicity study in dogs, the timepoints on days 1 and 28 were: before dose and 1, 2, 4, 8, and 24 h after dose. In both species, only mean pre-dose plasma concentrations were calculated on day 14 for the 28-d study and on day 28 for the 91-d study. For the experiments in rats, blood samples for drug analysis were taken from the satellite animals used for the toxicokinetic (TK) analysis (n = 3 per sex per timepoint and per group). For experiments performed in dogs, blood samples were drawn from the cephalic or jugular veins of all animals (n = 3 per sex per group).
# TK analysis was performed separately per sex on mean concentrations by a non-compartmental analysis (NCA). The linearity of exposure was evaluated by comparison of the AUC/dose and Cmax/dose ratios. Possible accumulation was evaluated from the ratio of AUC on day 28 and on day 1 for each dose level and each sex. Samples lower than the limit of quantification (LLQ) values (that is, < 8.00 ng ml^−1 in rats and <20.0 ng ml^−1 in dogs) were not included in the calculation of TK parameters.
# rats = assay: Irwin test and body temperature (GLP); format: in vivo; conditions: rats, GLP
# Description: The study involved four groups of six male Wistar rats weighing between 154.0 g and 185.9 g. […] On study day, animals were first scored by the Irwin standardized observation battery, and body temperature was measured. […] Irwin scores and measurement of body temperature were done again at 1, 3, 6, 8 and 24 h after dose.
# dogs = assay: Blood pressure, heart rate, ECG and body temperature in conscious dogs (GLP); format: in vivo
# Description: The dogs had telemetry transmitters for arterial blood pressure, body temperature and ECG measurements. The study was conducted in two parts.
# squirrel monkeys = assay: i.v. self-administration of THC in squirrel monkeys; format: in vivo, Saimiri sciureus
# Source text: Two experimental models were used: (1) THC i.v. self-administration and (2) THC-induced reinstatement of THC seeking. These two approaches were used to model the maintenance of daily cannabis use and cannabis seeking after a period of abstinence.
# For the self-administration experiments, four male squirrel monkeys (800–1,100 g; the estimated age was 17 years for three monkeys and 14 years for the fourth one) were used because this species reliably self-administers i.v. THC. Monkeys were trained to lever press for an i.v. injection of THC (4 µg kg^–1 per injection) under a 10-response fixed ratio schedule of drug injection (FR10; each 10th response on the lever produced an injection of THC, followed by a 60-s timeout). Number of lever presses and number of injections per session were recorded.
# mice [2] = assay: THC-induced decrease in social interaction; format: in vivo
# mice [3] = assay: THC-induced catalepsy (bar test); format: in vivo
# mice [4] = assay: Precipitated withdrawal in THC-dependent mice; format: in vivo; conditions: highest dose tested […]
# Description: From day 1 to days 4–5, mice were injected i.p. with vehicle or THC (20 mg kg^−1) twice per day. On the last day of treatment, mice in the THC group received rimonabant or AEF0117. All other animals received the respective vehicle. […] For the measure of precipitated withdrawal, mice were placed in a novel home cage, and a video camera was positioned in front of each cage to record behavior. Scoring was performed for 1 min every 5-min period. Two withdrawal signs were analyzed—paw tremors and head shaking—because they are the most common signs of THC withdrawal observed in mice[14].
# volunteers with CUD = assay: Phase 2a study, cannabis self-administration; format: in vivo, human
# Description: Participants, in groups of 3−4, completed two 5-d inpatient periods (first period ‘A’ and second period ‘B’) separated by a ≥ 14-d outpatient washout. During the two testing periods, participants received AEF0117 or matching placebo in counterbalanced order (two dosing sequences: AEF0117 first or placebo first). Participants took capsules at 9:00 each day and then smoked a controlled amount of cannabis (approximately 67 mg of THC smoked over 6 min) 3.5 h later (12:30). Ratings of the subjective effects of cannabis were done five times after cannabis administration (20 min, 40 min, 60 min, 90 min and 120 min after cannabis) using a VAS (0–100 mm). […] Participants were told that the cannabis strength could vary from day to day and between participants but that the cannabis they each received at 12:30 that day was the strength available for self-administration that day.
# On study days 2–5, beginning at 14:30, participants were given the option to self-administer individual puffs of cannabis (up to six puffs per timepoint) every 2 h until 20:30 (maximum of 24 puffs per day). Fifteen minutes before each self-administration opportunity, participants indicated the number of puffs they chose to purchase ($2 per puff), and they would pay for it (using faux money that was then subtracted from their study stipend) before receiving their individual ashtray, cannabis cigarette and lighter.
# AR (androgen receptor) = assay: Eurofins binding screen; conditions: 10 µM
# [5] = Sprague Dawley, 1.6 mg/kg, rats po 1.6 mg/kg single
# [6] = both sexes, Sprague Dawley SPF, 20 mg/kg, rats po 20 mg/kg single, 91-day tox study
# [7] = both sexes, Sprague Dawley SPF, 36 mg/kg, rats po 36 mg/kg single, 28-day tox study
# [8] = both sexes, Sprague Dawley SPF, 65 mg/kg, rats po 65 mg/kg single, 91-day tox study
# [9] = both sexes, Sprague Dawley, 2 mg/kg, rats po 2 mg/kg single, 28-day tox study
# [10] = both sexes, Sprague Dawley, 2 mg/kg, rats po 2 mg/kg single, 91-day tox study
# [11] = Impairment of social interaction
structure (smiles),measurement,setting,value
"COc1ccc(CO[C@H]2CC[C@@]3(C)C(=CC[C@H]4[C@@H]5CC[C@H](C(C)=O)[C@@]5(C)CC[C@@H]43)C2)cc1 [AEF0117, 3β-(4-methoxybenzyloxy)pregn-5-en-20-one]",AUC(0-t),[1]; [5],1060 ng·h/mL
same,Cmax,[1]; [5],116 ng/mL
same,half-life,"[1]; Sprague Dawley, 1.6 mg/kg, rats po 1.6 mg/kg single, read-out: t½ (converted)",13.9 h
same,half-life,"[1]; Sprague Dawley, rats per os, read-out: half-life",7.3 to 15.8 h
same,Tmax,"[1]; Sprague Dawley, rats po 1.6 mg/kg single",4.1 h
same,Tmax,"[1]; Sprague Dawley, rats, oral, corn oil",3 h
same,AUC(0-t),"[1]; both sexes, Sprague Dawley SPF, 9 mg/kg, rats po 9 mg/kg single, 28-day tox study",6150 ng·h/mL
same,half-life,"[1]; both sexes, Sprague Dawley SPF, 9 mg/kg, rats po 9 mg/kg single, 28-day tox study, read-out: t½ (converted)",11.7 h
same,AUC(0-t),[1]; [6],12700 ng·h/mL
same,Cmax,[1]; [6],1060 ng/mL
same,half-life,"[1]; both sexes, Sprague Dawley SPF, 20 mg/kg, rats po 20 mg/kg single, 91-day tox study, read-out: t½ (converted)",7.6 h
same,AUC(0-t),[1]; [7],16500 ng·h/mL
same,Cmax,[1]; [7],2060 ng/mL
same,half-life,"[1]; both sexes, Sprague Dawley SPF, 36 mg/kg, rats po 36 mg/kg single, 28-day tox study, read-out: t½ (converted)",9.8 h
same,AUC(0-t),[1]; [8],18200 ng·h/mL
same,Cmax,[1]; [8],1660 ng/mL
same,half-life,"[1]; both sexes, Sprague Dawley SPF, 65 mg/kg, rats po 65 mg/kg single, 91-day tox study, read-out: t½ (converted)",10.4 h
same,Tmax,"[1]; both sexes, Sprague Dawley SPF, rats po 9 mg/kg single, 28-day tox study",3 h
same,Tmax,"[1]; both sexes, Sprague Dawley SPF, rats po 20 mg/kg single, 91-day tox study",3 h
same,Tmax,"[1]; both sexes, Sprague Dawley SPF, rats po 36 mg/kg single, 28-day tox study",3 h
same,Tmax,"[1]; both sexes, Sprague Dawley SPF, rats po 65 mg/kg single, 91-day tox study",3 h
same,AUC(0-t),[1]; [9],1450 ng·h/mL
same,Cmax,[1]; [9],106 ng/mL
same,half-life,"[1]; both sexes, Sprague Dawley, 2 mg/kg, rats po 2 mg/kg single, 28-day tox study, read-out: t½ (converted)",8 h
same,AUC(0-t),[1]; [10],1210 ng·h/mL
same,Cmax,[1]; [10],86.3 ng/mL
same,half-life,"[1]; both sexes, Sprague Dawley, 2 mg/kg, rats po 2 mg/kg single, 91-day tox study, read-out: t½ (converted)",7.7 h
same,Cmax,"[1]; both sexes, Sprague Dawley, 9 mg/kg, rats po 9 mg/kg single, 28-day tox study",578 ng/mL
same,Tmax,"[1]; both sexes, Sprague Dawley, rats po 2 mg/kg single, 28-day tox study",4 h
same,time to steady state,"[1]; rats and dogs, repeated administration",approximately 14 days
same,adverse effects on behavior (Irwin test) and body temperature,rats,did not show any adverse effects
same,"adverse effects on blood pressure, heart rate, ECG and body temperature",dogs,did not show any adverse effects
same,i.v. self-administration of THC,squirrel monkeys; 15 µg kg^−1 oral,significantly reduced
same,% Inhibition,squirrel monkeys; Self-administration of THC,80%
same,ID50,squirrel monkeys; Self-administration of THC,0.005 mg/kg
same,ID100,squirrel monkeys; Self-administration of THC,0.015 mg/kg
same,THC's effects on social interaction,mice [2],inhibited
same,% Inhibition,mice [2]; [11],100%
same,ID50,mice [2]; [11],0.005 mg/kg
same,ID100,mice [2]; [11],0.015 mg/kg
same,THC-induced catalepsy,mice [3],inhibited
same,% Inhibition,mice [3]; Catalepsy,50%
same,ID50,mice [3]; Catalepsy,0.005 mg/kg
same,ID100,mice [3]; Catalepsy,0.05 mg/kg
same,Overall effect: precipitated withdrawal in THC-dependent mice,mice [4],No
same,cannabis self-administration,"volunteers with CUD; 1 mg, global crossover analysis",reduced
same,number of individuals choosing to self-administer cannabis,"volunteers with CUD; Treatment or Treatment x Dose, McNemar's test",no significant effect
same,Percent inhibition of control specific binding,AR (androgen receptor),20%
